Here are results for 28 compounds from PMC8154419, “Druggable Hot Spots in the Schistosomiasis Cathepsin B1 Target Identified by Functional and Binding Mode Analysis of Potent Vinyl Sulfone Inhibitors” (ACS Infectious Diseases, 2020).

The structures appear in SMILES notation. Several values for one entry are separate records, joined by “and”; a condition that tells them apart may be missing. Equal values may be shown once.

In this assay the target is SmCB1 (Schistosoma mansoni, UniProt Q8MNY2, T185A/T300A). Put plainly: SmCB1 kinetic inhibition assay (IC50) with fluorogenic substrate Cbz–Phe–Arg–AMC. The class given is biochemical. Particulars: recombinant SmCB1, Cbz–Phe–Arg–AMC, pH 5.5; mean ± SE, triplicate; n.i.: no significant inhibition at 100 μM. An excerpt: Thirty-four peptidomimetic vinyl sulfone analogs (including vinyl sulfonamides and vinyl sulfonate esters) were explored as potential inhibitors of SmCB1 to infer the structural requirements of the inhibitor-binding subsites in the enzyme active site cleft. The compound scaffold is defined by positions P3 through P1′, and the substitutions were selected to provide a high diversity at P2 and P1′ (Table 1). These two positions were recently reported to display large differences in the subsite interaction energy in response to their structural modifications.[10] The compounds were screened in vitro against recombinant SmCB1, and their IC50 values were determined using a kinetic inhibition assay with the fluorogenic substrate Cbz–Phe–Arg–AMC.
Sequence of SmCB1 (Q8MNY2 87-340 T185A/T300A): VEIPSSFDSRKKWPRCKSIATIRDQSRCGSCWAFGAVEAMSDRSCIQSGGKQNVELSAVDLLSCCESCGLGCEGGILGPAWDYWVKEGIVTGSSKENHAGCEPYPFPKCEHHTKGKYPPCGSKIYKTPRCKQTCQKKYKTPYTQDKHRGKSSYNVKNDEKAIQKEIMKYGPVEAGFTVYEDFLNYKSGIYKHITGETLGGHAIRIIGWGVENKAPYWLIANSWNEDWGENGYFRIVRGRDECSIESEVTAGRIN
Inhibition measurements were performed in triplicates in 96-well microplates (100 μL assay volume) at 37 °C. […] The kinetics of product release was continuously monitored in an Infinite M1000 microplate reader (Tecan) at excitation and emission wavelengths of 360 and 465 nm, respectively. The IC50 values were determined by nonlinear regression using GraFit software. To determine the inhibition constant k2nd, the enzyme (40 pM SmCB1 or 60 pM HuCB) was added to a mixture of the fluorogenic substrate Cbz–Phe–Arg–AMC (20 μM for SmCB1 and 33 μM for HuCB) and an inhibitor (0–1 μM) in the assay buffer under assay conditions as above. The hydrolysis of substrate was monitored for 30 min in a microplate reader as described above. An observed rate constant, kobs, was calculated at each inhibitor concentration by fitting the progress curve to the equation P = vi/kobs(1 – e^–kobst), where P is the product formation, vi is the initial velocity, and t is the reaction time. For both enzymes, kobs varied linearly with the inhibitor concentration showing that the dependence of kobs on the inhibitor concentration is nonsaturating. […] The second order rate constant, k2nd, was determined by fitting to the linear equation kobs = (k2nd[I])/(1 + [S]/KM), where [S] is the substrate concentration, [I] is the inhibitor concentration, and KM is the Michaelis–Menten constant. KM values determined for SmCB1 and HuCB were 25 and 38 μM, respectively.
By IC50 is commonly meant the concentration that inhibits the measured activity by half. Turning to `O=C(N[C@H](/C=C/S(=O)(=O)c1ccccc1)CCc1ccccc1)[C@H](CCS(=O)(=O)c1ccccc1)NC(=O)N1CCOCC1` [CRA-009], the IC50 came to 186 ± 19 nM.
On the same count and under the same terms, to `O=C(N[C@H](/C=C/S(=O)(=O)c1ccccc1)CCc1ccccc1)[C@H](CS(=O)(=O)Cc1ccccc1OC(F)F)NC(=O)N1CCOCC1` [CRA-012] belongs 477 ± 43 nM; to `CCC[C@@H](/C=C/S(=O)(=O)c1ccccc1)NC(=O)[C@H](CC1CCCCC1)NC=NS(=O)(=O)c1ccccc1` [CRA-359], 9990 ± 280 nM.
Take `CCCC[C@@H](/C=C/S(=O)(=O)c1ccccc1)NC(=O)[C@H](Cc1cc(I)c(O)c(I)c1)NC(=O)OC(C)(C)C` [CRA-372]: the IC50 came to 6250 ± 322 nM.
For `CCCC[C@@H](/C=C/S(=O)(=O)c1ccccc1)NC(=O)[C@@H](N)Cc1cc(I)c(O)c(I)c1` [CRA-373], the IC50 was 425 ± 46 nM.
As for `CCC[C@@H](/C=C/S(=O)(=O)c1ccccc1)NC(=O)[C@H](Cc1ccccc1Cl)NC1=NS(=O)(=O)c2ccccc21` [CRA-383], the concentration for half-maximal inhibition (IC50) fell in the range of 10000 to 100000 nM.
For `CCC[C@@H](/C=C/S(=O)(=O)c1ccccc1)NC(=O)[C@H](CSCc1ccccn1)NC1=NS(=O)(=O)c2ccccc21` [CRA-393], the IC50 is 3450 ± 346 nM.
On to `O=C(N[C@@H](Cc1cc(I)c(O)c(I)c1)C(=O)N[C@H](/C=C/S(=O)(=O)c1ccccc1)CCc1ccccc1)c1ccc(N2CCOCC2)cc1` [CRA-422], for which the IC50 turned out to be 665 ± 98 nM.
Same read-out and setting: to `CCC[C@@H](/C=C/S(=O)(=O)c1ccccc1)NC(=O)[C@H](Cc1ccccc1)NC(=O)N1CCC(N2CCOCC2)CC1` [CRA-446] belongs 44.6 ± 6.1 nM.
The same measure, in the same setting: next, `CCC[C@@H](/C=C/S(=O)(=O)c1ccccc1)NC(=O)[C@H](Cc1ccc2ccccc2c1)NC(=O)N1CCC(N2CCOCC2)CC1` [CRA-547]: ~40 nM and 39.2 nM.
Consider `CCC[C@@H](/C=C/S(=O)(=O)c1ccccc1)NC(=O)[C@H](Cc1ccc(F)cc1)NC(=O)N1CCC(N2CCOCC2)CC1` [CRA-552], for which the 50% inhibitory concentration (IC50) turned out to be 202 ± 25 nM.
Regarding `CCCC[C@@H](/C=C/S(=O)(=O)c1ccccc1)NC(=O)[C@H](Cc1ccccc1)NC(=O)N1CCC(N2CCOCC2)CC1` [CRA-553], the half-maximal inhibitory concentration (IC50) worked out at 13.2 ± 1.3 nM.
On to `O=C(N[C@H](/C=C/S(=O)(=O)c1ccccc1)CCc1ccccc1)[C@H](Cc1ccccc1)NC(=O)N1CCC(N2CCOCC2)CC1` [CRA-554], for which the half-maximal inhibitory concentration (IC50) turned out to be 6 ± 0.89 nM.
With `CCC[C@@H](/C=C/S(=O)(=O)c1ccccc1)NC(=O)C1(NC(=O)N2CCN(C)CC2)CCCCC1` [CRA-555], the “Inhibition IC50” value is listed as “n.i”.
The same measure, in the same setting: next, `CCC[C@@H](/C=C/S(=O)(=O)c1ccccc1)NC(=O)[C@H](Cc1c(F)cccc1F)NC(=O)c1ccc(-c2ccccc2Cl)cc1` [CRA-845]: “n.i”.
Regarding `O=C(N[C@H](/C=C/S(=O)(=O)c1ccccc1)CCc1ccccc1)[C@H](CS(=O)(=O)Cc1ccccc1)NC(=O)N1CCOCC1` [CRA-891], the half-maximal inhibitory concentration (IC50) came to 212 ± 10 nM.
Turning to `CCCC[C@@H](/C=C/S(=O)(=O)c1ccccc1)NC(=O)[C@H](Cc1ccccc1)NC(=O)N1CCC(N2CCCCC2)CC1` [CRA-892], the 50% inhibitory concentration (IC50) turned out to be 7.5 ± 0.58 nM.
For the compound `C[C@@H](/C=C/S(=O)(=O)NCCc1ccccc1)NC(=O)[C@H](Cc1ccccc1)NC(=O)OCc1ccccc1` [WRR-186], the 50% inhibitory concentration (IC50) is 629 ± 57 nM.
Same read-out and setting: to `C[C@@H](/C=C/S(=O)(=O)NCc1ccc(F)cc1)NC(=O)[C@H](Cc1ccccc1)NC(=O)OCc1ccccc1` [WRR-196] belongs 1250 ± 173 nM; to `C[C@@H](/C=C/S(=O)(=O)NCc1ccc(F)cc1F)NC(=O)[C@H](Cc1ccccc1)NC(=O)OCc1ccccc1` [WRR-197], 1130 ± 120 nM; to `C[C@@H](/C=C/S(=O)(=O)Oc1ccccc1)NC(=O)[C@H](Cc1ccccc1)NC(=O)OCc1ccccc1` [WRR-199], 2.55 ± 0.2 nM.
Consider `C[C@@H](/C=C/S(=O)(=O)NCc1ccc(Cl)cc1)NC(=O)[C@H](Cc1ccccc1)NC(=O)OCc1ccccc1` [WRR-201], for which the half-maximal inhibitory concentration (IC50) worked out at 541 ± 76 nM.
For `CNS(=O)(=O)/C=C/[C@H](C)NC(=O)[C@H](Cc1ccccc1)NC(=O)OCc1ccccc1` [WRR-206], the half-maximal inhibitory concentration (IC50) is 93.7 ± 7.3 nM.
In the case of `O=C(N[C@@H](Cc1ccccc1)C(=O)N[C@H](/C=C/S(=O)(=O)c1ccccn1)CCc1ccccc1)OCc1ccccc1` [WRR-255], the half-inhibitory concentration (IC50) was found to be 1.5 ± 0.13 nM.
As to `O=C(N[C@@H](Cc1ccccc1)C(=O)N[C@H](/C=C/S(=O)(=O)CCc1ccccc1)CCc1ccccc1)OCc1ccccc1` [WRR-257], the IC50 is 9520 ± 607 nM.
As to `O=C(N[C@@H](Cc1ccccc1)C(=O)N[C@H](/C=C/S(=O)(=O)Oc1ccc([N+](=O)[O-])cc1)CCc1ccccc1)OCc1ccccc1` [WRR-258], the 50% inhibitory concentration (IC50) turned out to be 50.1 ± 4.9 nM.
For the compound `CN1CCN(C(=O)N[C@@H](Cc2ccccc2)C(=O)N[C@H](/C=C/S(=O)(=O)Oc2ccc(F)cc2)CCc2ccccc2)CC1` [WRR-353], the half-maximal inhibitory concentration (IC50) came out at 119 ± 16 nM.
In the case of `CCOC(=O)C1CCN(C(=O)N[C@@H](CC2CCCCC2)C(=O)N[C@H](/C=C/S(=O)(=O)c2ccccc2)CCc2ccccc2)CC1` [WRR-436], the 50% inhibitory concentration (IC50) turned out to be 72.1 ± 9.1 nM.
